Like-named read-outs stand apart in the source and are kept apart here. Values belong to the molecule of their own block, whether it stands above or below them.
Legend:
[1] = Blood pH and blood gas of GRY rats placed in gas containing carbon dioxide or oxygen; assay type: in vivo, rat
Procedure: In order to control a concentration of carbon dioxide, multi-gas incubator (MCO-5M; Sanyo Electric Co., Ltd.) was used as a multi-gas concentration control apparatus to adjust the concentration of carbon dioxide in the incubator. A concentration of oxygen was also adjusted for comparison. Main components of the normal dry air are 0.032% (v/v) of carbon dioxide, 20.946% (v/v) of oxygen, and 78.084% (v/v) of nitrogen. Therefore, using the above-described multi-gas concentration control apparatus, the concentration of carbon dioxide was set to 5% (v/v), 7% (v/v), or 10% (v/v), or the concentration of oxygen was set to 17% (v/v). When the concentration of carbon dioxide was adjusted, carbon dioxide gas supplied from a carbon dioxide gas bottle connected to the apparatus was diluted with the air outside. Therefore, carbon dioxide=10% (v/v), oxygen=about 18.85% (v/v), and nitrogen=about 70.28% (v/v). When the concentration of oxygen was set to 17% (v/v), similarly, the concentration was adjusted using nitrogen gas supplied from a nitrogen gas bottle connected to the apparatus. Therefore, carbon dioxide=0.026% (v/v), oxygen=about 17% (v/v), and nitrogen=about 82.974% (v/v). It was confirmed using a gas analyzer AGA-2008 (Astec Co. Ltd.) that each concentration in the incubator was correct under the set conditions.
The surgery of embedding an electrode for measurement of electroencephalograms was performed to eight male GRY rats (9 weeks old). After a one-week recovery period, the GRY rats were placed for one hour in the multi-gas concentration control apparatus adjusted to a concentration of carbon dioxide of 5% (v/v), 7% (v/v), or 10% (v/v), or a concentration of oxygen of 17% (v/v).
Blood samples were collected from the tail vein of the rats placed in the multi-gas concentration control apparatus, and the blood pH and the blood concentration of carbon dioxide were measured using an i-STAT analyzer (Fuso Pharmaceutical Industries, Ltd.) as a blood gas analyzer.
Carbon dioxide or oxygen was administered to rats by placing the rats in the multi-gas concentration control apparatus adjusted to a concentration of carbon dioxide of 10% (v/v) or a concentration of oxygen of 17% (v/v) for 15 minutes, 30 minutes, 45 minutes, or 60 minutes (5-6 rats for each). Rats placed in the multi-gas concentration control apparatus adjusted to a concentration of the normal air were used as a control.

[2] = tested on: epileptic model rat (GRY rat); test: Electroencephalogram spike index of epileptic model rat (GRY rat); assay type: in vivo; details: GRY rats
Description: In the present Example, a GRY rat (groggy rat, Cacnala) was used as an epileptic model rat. A GRY rat constantly develops an epileptic seizure in normal conditions, and therefore is an extremely excellent system to evaluate a seizure by subjecting the GRY rat to a treatment. The GRY rat has a mutation in an al subunit of a P/Q-type voltage-dependent calcium channel Cav2.1 which encodes Cacnala gene, and is an epileptic model rat which mainly develops ataxia and absence seizure. The GRY rat takes a mode of autosomal recessive inheritance. The 752nd nucleotide “T” of the Cacnala gene has mutated to “A”. As a result, a codon “ATG” to specify methionine which is the 251st amino acid has mutated to a codon “AAG” to specify lysine (M251K). It has been reported that this mutation is located at extracellular p-loop forming a pore of a calcium channel domain 1 and that this mutation (M251K) results in abnormality of a function of the voltage-dependent calcium ion channel Cav2.1 of the rat (Reference Literatures 1 and 2). The GRY rats with this mutation show extension abnormalities of hind limbs, walking abnormalities, and ataxia, and a seizure which is accompanied with spike and wave discharges of 7-8 Hz on the electroencephalograms from 6-8 weeks of age. The present model rats were dispensed from Institute of Laboratory Animals, Graduate School of Medicine, Kyoto University.
Male GRY rats were anesthetized by administering 35 mg/kg of pentobarbital sodium (Nembutal, Sumitomo Dainippon Pharma Co. Ltd.) intraperitoneally, and were fixed to a brain stereotaxic fixing apparatus (SR-5M, NARISHIGE Group). The head was shaved, the skin was incised along the median line, and the skull was exposed. A small hole was opened on the frontal lobe cortex and the occipital lobe cortex on both sides using a dental drill (FALCON, Morita Corporation). A stainless steel screw electrode (FUKUOKA RASHI) having a diameter of 0.9 mm and a length of 1.7 mm and connected a stainless steel wire having a diameter of 0.2 mm (M T Giken) was embedded in the hole (refer to FIG. 1). A screw electrode was embedded in the root of nose as a Z electrode, and a screw electrode was embedded in the cerebellum as an indifferent electrode. Each electrode was connected to a connector socket (Hirose Electric Co. Ltd.), and fixed to the skull with dental cement (Uni Fast II, GC Dental Products).
The rats placed in the multi-gas concentration control apparatus adjusted to a concentration of carbon dioxide of 5% (v/v), 7% (v/v), or 10% (v/v) were subjected to simultaneous video-electroencephalographic recording. Rats placed in the air were used as a control.
Electroencephalograms of the frontal lobe cortex and the occipital lobe cortex of the rats were measured using an electroencephalograph (Neurofax EEG-1200, NIHON KOHDEN CORPORATION). A spike index was used as an index of evaluation of a seizure. The spike index represents a ratio of duration of a spike in measurement time (15 minutes). The spike means a waveform indicating a sharp change in potential in a short time (refer to FIG. 3).
Carbon dioxide was administered to rats by placing the rats in the multi-gas concentration control apparatus adjusted to a concentration of carbon dioxide of 10% (v/v) (9 rats).
By placing the rats in the multi-gas concentration control apparatus, the rats were administered with 10% (v/v) carbon dioxide, and subjected to simultaneous video-electroencephalographic recording every 15 minutes for one hour, and an effect of suppressing an epileptic seizure (spike index) was measured before and after the administration of carbon dioxide.
Next, electroencephalograms were measured.

[3] = Blood concentration, blood pH and blood bicarbonate ion after acetazolamide in GRY rats
[4] = Blood pH of Kyo811 rats after febrile seizures and carbon dioxide; assay type: in vivo, rat; details: Kyo811 rats after febrile seizures, carbon dioxide 10% (v/v)
Procedure: (§1) Immediately after the seizure was induced, the rats were placed in the multi-gas concentration control apparatus adjusted to the concentration of carbon dioxide of 10% (v/v) or the concentration of the normal air, and the situation of the seizure was observed while electroencephalograms were measured continuously.
As a control, the blood pH of the rats (10 rats) before induction of febrile seizures was measured. As a result, it was confirmed that the increase in the concentration of carbon dioxide to 10% (v/v) reduced the blood pH of the rats (FIG. 14).

[5] = tested on: epileptic model rat (Kyo811 rat); test: Electroencephalogram and seizure duration of Kyo811 rats with febrile seizures induced by thermal load; assay type: in vivo; details: febrile seizures by warm bath at 45° C., carbon dioxide 10% (v/v) vs normal air
Description: In epilepsy, about 80% of patients of intractable Dravet syndrome (formerly, referred to as Severe Myoclonic Epilepsy in Infancy: SMEI), and about 5-10% of patients of benign generalized epilepsy with febrile seizure plus: GEFS+) have missense mutations in a voltage-dependent sodium channel a subunit type 1 (SCN1A) gene. Therefore, it is considered that the mutations in the SCN1A gene are involved in development of febrile seizures (Reference Literatures 3 and 4). In the present Reference Example, using the Kyo811 rats having a mutation in the Scn1a gene as a genetic factor, suppressive effect of seizure by carbon dioxide was examined. This rat is a febrile seizure model rat which induces febrile seizures by a thermal load, and a GEFS+ model rat.
A Kyo811 rat was prepared as a rat with a mutation in the voltage-dependent sodium channel Scn1a gene by the following technology. […]
After a one-week recovery period, the rats were put into a warm bath at 45° C. for about 3-4 minutes to induce febrile seizures, and electroencephalograms were measured.
as §1, with “continuously. […]” for “continuously.”

[6] = tested on: 8-11 days-old rats; details: rats in a chamber containing 5% carbon dioxide; cited from earlier work
[7] = cited from earlier work
[8] = concentration of oxygen 17% (v/v), one hour
[9] = 50 mg/kg intraperitoneally, 15, 30, 45 and 60 minutes after the administration, saline control
[10] = 10% (v/v) carbon dioxide for 15 to 60 minutes
[11] = carbon dioxide 5% (v/v), 7% (v/v) or 10% (v/v), one hour

SMILES: O=O [oxygen, reference compound]
blood concentration of carbon dioxide [1, 8]: reduced
blood pH [1, 8]: increased

time after administration of highest blood concentration of acetazolamide ([3]; 50 mg/kg intraperitoneally): 15 min
blood pH ([3]; 30 minutes after the administration of 50 mg/kg): 7.08±0.03
SMILES: CC(=O)Nc1nnc(S(N)(=O)=O)s1 [acetazolamide, Acetazolamide]
spike duration of a seizure ([2]; acetazolamide 50 mg/kg intraperitoneally, vs non-administration group): significantly suppresses
blood bicarbonate ion as compared with the control group [3, 9]: significantly low
blood pH as compared with the control group [3, 9]: significantly low

blood concentration of carbon dioxide [1, 10]: increased
blood concentration of carbon dioxide [1, 11]: increased
SMILES: O=C=O [carbon dioxide]
blood pH [1, 10]: reduced
blood pH [1, 11]: reduced
blood pH ([1]; environment of 10% (v/v) carbon dioxide): 7.27
time the effect of suppressing a seizure lasts after the administration ([2]; 10% (v/v) carbon dioxide): ≥ 30 min
average spike index (spike index for 15 minutes before administration assumed to be 1) ([2]; 10% (v/v) carbon dioxide, 0-15 minutes): 0.0074
average spike index (spike index for 15 minutes before administration assumed to be 1) ([2]; 10% (v/v) carbon dioxide, 16-30 minutes): 0.054
average spike index (spike index for 15 minutes before administration assumed to be 1) ([2]; 10% (v/v) carbon dioxide, 31-45 minutes): 0.275
average spike index (spike index for 15 minutes before administration assumed to be 1) ([2]; 10% (v/v) carbon dioxide, 46-60 minutes): 0.416
effect of suppressing a seizure ([2]; 10% (v/v) carbon dioxide, 15 minutes after the administration): suppress a seizure almost completely
epileptiform discharges, duration of a spike ([2]; 10% (v/v) carbon dioxide, five minutes from 25 seconds after starting vs five minutes before administration): suppressed significantly
epileptiform discharges, duration of a spike ([2]; carbon dioxide 7% (v/v) or 10% (v/v), control rats in the air): suppressed significantly
blood pH [4]: reduced
epileptiform discharges, duration of a spike [5]: suppressed significantly
seizure duration (second) [5]: suppressed significantly
alkalosis in the brain [6]: can be suppressed
effect of carbon dioxide gas in the air ([7]; concentration of 1 to 2% (v/v)): causes discomfort
effect of carbon dioxide gas in the air ([7]; concentration of 3 to 4% (v/v)): stimulates the respiratory center
effect of carbon dioxide gas in the air ([7]; concentration of 6 to 7% (v/v)): makes breathing difficult
effect of carbon dioxide gas in the air ([7]; concentration of 7 to 10% (v/v)): causes unconsciousness in a few minutes

— patent publication US20190160093A1, “THERAPEUTIC AGENT FOR DISEASE ACCOMPANIED BY EPILEPTIC WAVES” (TAIYO NIPPON SANSO CORPORATION, priority 2010, published 2019)
